Measurements reported in US20100324067A1, “TETRACYCLIC DIPYRANO-COUMARIN COMPOUNDS WITH ANTI-HIV AND ANTI-MYCOBACTERIUM TUBERCULOSIS ACTIVITIES” (priority 2007, published 2010).
Converted amounts (≈) assume the structure as drawn. Like-named read-outs stand apart in the source and are kept apart here.

Columns and labels:
[1] = tested on: HIV-1; experiment: Inhibitory activity against HIV-1 (literature method, Chen et al. J Virol 1997); details: for inhibition at 1 µM: Human immunodeficiency virus 1, read-out: Anti-HIV (%, 1.0 μM)
Method: Inhibitory activity of the coumarin derivatives of the present invention against HIV-1.
Inhibitory activity of the compounds against HIV-1 is assayed using the literature method. The experimental conditions, procedures, reagents and so on of the experiment are referred to the reference of “ZHIWEI CHEN, PEI ZHOU, DAVID D. HO, et al. Genetically divergent strains of simian immuno-deficiency virus use CCR5 as a coreceptor for entry. Journal of Virology, 1997, 71(4): 2705-2714”.

[2] = tested on: host cells of the virus; experiment: Cell toxicity to the host cells of the virus at 10 μM; assay type: cell-based
[3] = tested on: Mycobacterium tuberculosis H37Rv (ATCC 27294); experiment: Microplate Alamar Blue Assay (MABA) in BACTEC 12B medium (TAACF screen); assay type: cell-based
[4] = read-out: anti-TB active compound (MIC90 less than 10 μg/mL), classification

| Structure (SMILES) | inhibition at 1 µM [1] [%] | Cell toxicity (10 μM) [2] | IC50 [3] [µg/mL] | MIC90 ([3]; MABA, H37Rv, read-out: MIC90) [µg/mL] | melting point [°C] | EC50 ([1]; Human immunodeficiency virus 1) [nM] | anti-HIV-1 activity in vitro compared to (+)-calanolide A ([1]; in words) | therapeutic index, in words ([1]; in words) | Therapeutic index (TI) = 50% cytotoxicity doses/50% effective dose ([1]; value in brackets after EC50) | MIC90 [3, 4] [µg/mL] |
| --- | --- | --- | --- | --- | --- | --- | --- | --- | --- | --- |
| C/C=C/C1C=Cc2c3c(c4oc(=O)c(F)c(CC)c4c2O1)C(=O)CC(C)O3 (stereo not shown) [Example 88, 4-ethyl-6-propenyl-3-fluoro-10-methyl-2H,6H,12H-benzo[1,2-b:3,4-b′:5,6-b″]-tripyranyl-2,12-dione] | 46.2 | − | 70.7 (≈ 191 µM) | > 100 | 158 to 161 |  |  |  |  |  |
| CCCc1cc(=O)oc2c3c(c4c(c12)OC(C)(C)C=C4)OC1CC1C3=O (stereo not drawn) [Example 70, 6,6,-dimethyl-4-propyl-10,11-cis-cyclopropyl-2H,6H,12H-benzo[1,2-b:3,4-b′:5,6-b″]tripyranyl-2,12-dione] | 68.6 | − | 3.31 (≈ 9.38 µM) | 5.54 (≈ 15.7 µM) | 113 to 115 | 14.1 | much higher inhibitory activity | high therapeutic index | 709-2127 | < 10 |
| CCc1c(F)c(=O)oc2c3c(c4c(c12)OC(C)C=C4)OC(C)CC3=O (stereo not shown) [Example 83, 6,10-dimethyl-4-ethyl-3-fluoro-2H, H, 12H-benzo[1,2-b:3,4-b′: 5,6-b″]-tripyranyl-2,12-dione] | 39.5 | − | 24.4 (≈ 70.9 µM) | 27.7 (≈ 80.4 µM) | 141 to 142 |  |  |  |  |  |
| CCCc1c(Cl)c(=O)oc2c3c(c4c(c12)OCC(C)C4OCC)OC(C)CC3=O (stereo not shown) [Example 96, 8-ethoxyl-7,10-dimethyl-4-n-propyl-3-chloro-7,8,10,11-tetrahydro-6H-benzo[2,3-f;2′,3′-h]-tripyranyl-2,12-dione] | 51.7 | − | 11.1 (≈ 26.4 µM) | 22.2 (≈ 52.8 µM) | 187 to 189 |  |  |  |  |  |
| CC1CC(=O)c2c(c3c(c4c(CCC(F)(F)F)cc(=O)oc24)OC(c2ccccc2)C=C3)O1 (stereo not shown) [Example 74, 4-(3,3′, 3″-trifluoro-n-propyl)-6-phenyl-O-methyl-2H,6H, 2H-benzo[1,2-b:3,4-b′:5,6-b″]-tripyranyl-2,12-dione] | 47.6 | − | 5.7 (≈ 12.5 µM) | 6.38 (≈ 14 µM) | 171 to 173 |  |  |  |  | < 10 |
| C/C=C/C1C=Cc2c3c(c4oc(=O)cc(CC)c4c2O1)C(=O)CC(C)O3 (stereo not shown) [Example 87, 4-ethyl-6-propenyl-10-methyl-2H,6H,12H-benzo[1,2-b:3,4-b′:5,6-b″]-tripyranyl-2,12-d ione] | 56.4 | − | 51.2 (≈ 145 µM) | > 100 | 153 to 155 |  |  |  |  |  |
| CCc1cc(=O)oc2c3c(c4c(c12)OC(C)C=C4)OC(C)CC3=O (stereo not shown) [Example 79, 6,10-dimethyl-4-ethyl-2H,6H,12H-benzo[1,2-b:3,4-b′:5,6-b″]-tripyranyl-2,12-dione] | 57.4 | − | 6.07 (≈ 18.6 µM) | 6.84 (≈ 21 µM) | 133 to 134 |  |  |  |  |  |
| CCCCc1cc(=O)oc2c3c(c4c(c12)OC(C)C=C4)OC(C)CC3=O (stereo not shown) [Example 82, 6,10-dimethyl-4-n-butyl-2H,6H,12H-benzo[1,2-b:3,4-b′:5,6-b″]-tripyranyl-2,12-dione] | 75.4 | − | 36.3 (≈ 102 µM) | 56.2 (≈ 158 µM) | 128 to 129 |  |  |  |  |  |
| CCCc1c(Cl)c(=O)oc2c3c(c4c(c12)OC(C)C=C4)OC(C)CC3=O (stereo not shown) [Example 81, 6,10-dimethyl-4-n-propyl-3-chloro-2H,6H,12H-benzo[1,2-b:3,4-b′:5,6-b″]-tripyranyl-2,12-dione] | 55.7 | − |  |  | 129 to 131 |  |  |  |  |  |
